Structures can show the parent of a compound that is named as a salt.
Assay: collision cross section in nitrogen (drift tube, single-field); higher = larger gas-phase ion size
[1] = ion type: [M+H], ion source: APCI, ion mode: Positive
[2] = ion type: [M+H], ion source: ESI, ion mode: Positive
[3] = ion type: [M+Na], ion source: ESI, ion mode: Positive
[4] = ion type: [M-H], ion source: ESI, ion mode: Negative
[5] = ion type: [M+], ion source: APCI, ion mode: Positive
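Further: chemical standards at 10 µM analysed by drift tube IMS-QTOF MS in about 3.95 torr nitrogen, mean of duplicate injections differing ≤1%, mass error below 10 ppm.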

collision cross section in nitrogen [1] [Å²] | collision cross section in nitrogen [2] [Å²] | collision cross section in nitrogen [3] [Å²] | collision cross section in nitrogen [4] [Å²] | SMILES | further results
191 | 190.7 | 192 | 190.2 | CCOc1nc(F)cc2nc(S(=O)(=O)Nc3c(Cl)cccc3C(=O)OC)nn12 [Cloransulam-methyl] | 
 |  |  | 154.4 | CC(=O)CC(=O)Nc1ccc2[nH]c(=O)[nH]c2c1 [3-Oxo-N-(2-oxo-2,3-dihydro-1H-benzimidazol-5-yl)butanamide] | 
201 | 200.9 | 196.9 | 214.6 | CCC(=C(c1ccc(O)cc1)c1ccc(OCCN(C)C)cc1)c1ccccc1 [4-Hydroxytamoxifen] | 
145.3 | 145.7 | 157 |  | CC=CC(=O)N(CC)c1ccccc1C [Crotamiton] | 
125.1 | 124.8 |  | 125.2 | Cc1ccc2[nH]nnc2c1 [5-Methyl-1H-benzotriazole] | 
166.9 | 166 |  |  | CCCSc1ccc2[nH]c(NC(=O)OC)nc2c1 [Albendazole] | collision cross section in nitrogen [5]: 160.4 Å²
243.1 | 243.4 | 241.9 | 247.7 | CCn1nc(Cc2ccccc2)cc1C1CCN(C[C@H]2C[C@H](N(C)[C@@H](C(=O)O)C(C)C)C[C@@H]2c2cccc(F)c2)CC1 [MK-578] | 
 |  |  | 156.3 | O=C(O)C1(C(=O)Nc2ccc(Cl)cc2Cl)CC1 [Cyclanilide] | 
 |  |  | 143.4 | O=C(c1ccccc1)c1ccccc1O [2-Hydroxybenzophenone] | 
158.4 | 158.3 | 173 | 157.7 | Nc1nc(N)c2nc(-c3ccccc3)c(N)nc2n1 [Triamterene] | collision cross section in nitrogen [5]: 155 Å²
 |  |  | 135.6 | O=C(O)c1cc2ccccc2cc1O [3-Hydroxy-2-naphthoic acid] | 
 |  |  | 126.4 | O=c1[nH]c(=O)c2[nH]c(=O)[nH]c2[nH]1 [Uric acid] | 
 |  |  | 174.4 | CC(C)COC(=O)CC(C(=O)OCC(C)C)S(=O)(=O)O (configuration not stated) [Sodium 1,4-diisobutyl sulfosuccinate] | 
 | 140.8 |  |  | O=c1[nH]cc(S(=O)(=O)Cl)c(=O)[nH]1 [2,4-Dioxo-1,2,3,4-tetrahydropyrimidine-5-sulfonyl chloride] | 
 |  |  | 208.6 | Cc1cc(C)c(S(=O)(=O)O)cc1N=Nc1cc(S(=O)(=O)O)c2ccccc2c1O [FD&C Red 4] | 
 |  |  | 130.1 | COc1cc(C)cc(O)c1 [3-Methoxy-5-methylphenol] | 
133.8 | 134.3 |  |  | Cc1ncc([N+](=O)[O-])n1CCO [Metronidazole] | 
139.4 | 140.3 |  |  | CCN(CC)c1ccc(C=O)cc1 [4-(Diethylamino)benzaldehyde] | 
139.3 |  |  | 141.6 | O=C(O)C(=O)Cc1c[nH]c2ccccc12 [Indole-3-pyruvic acid] | 
116.9 | 118.1 |  |  | Cn1cc[nH]c1=S [Methimazole] | 
121.7 | 122.1 |  | 119.9 | OCc1ncccc1O [3-Hydroxy-2-(hydroxymethyl)pyridine hydrochloride] | 
158.6 | 158.5 |  |  | CCCCCCCCN1CCCC1=O [1-Octyl-2-pyrrolidone] | 
 |  | 211.7 | 199.8 | C[C@H]1C[C@H]2[C@@H]3CCC4=CC(=O)C=C[C@]4(C)[C@@]3(F)[C@@H](O)C[C@]2(C)[C@@]1(O)C(=O)COP(=O)(O)O [Betamethasone 21-phosphate disodium] | 
167.9 | 167.9 |  |  | C=CCOC(Cn1ccnc1)c1ccc(Cl)cc1Cl (configuration not stated) [Imazalil] | 
202.8 |  |  | 187.7 | COc1cc(/C=C/C(=O)CC(=O)/C=C/c2ccc(O)c(OC)c2)ccc1O [Curcumin] | 
 |  |  | 136.4 | O=C(O)c1cc(Br)c(O)c(Br)c1 [3,5-Dibromo-4-hydroxybenzoic acid] | 

Continued, compound first:

SMILES | collision cross section in nitrogen [1] [Å²] | collision cross section in nitrogen [2] [Å²] | collision cross section in nitrogen [3] [Å²] | collision cross section in nitrogen [4] [Å²] | further results
CCC(C)c1cc(C(C)(C)C)cc(-n2nc3ccccc3n2)c1O (configuration not stated) [2-(2H-Benzotriazol-2-yl)-6-(butan-2-yl)-4-tert-butylphenol] | 187.2 |  |  | 192.5 | 
CN/C(=N\[N+](=O)[O-])NCc1cnc(Cl)s1 [Clothianidin] |  |  |  | 151.8 | 
Cc1cc(Cl)ccc1N=CN(C)C [Chlordimeform] | 145.6 | 146.4 |  |  | 
C=CC(=O)OCC1CC2CC1C1CCC(COC(=O)C=C)C21 (configuration not stated) [Tricyclodecanedimethanol diacrylate] |  |  | 176.9 |  | 
C=CC(=O)OCCCCCCOC(=O)C=C [1,6-Hexanediol diacrylate] |  |  | 157.7 |  | 
CCCCOCN(C(=O)CCl)c1c(CC)cccc1CC [Butachlor] |  |  | 184.4 |  | 
c1ccc2c(c1)Nc1ccccc1S2 [Phenothiazine] |  |  |  |  | collision cross section in nitrogen [5]: 136 Å²
c1ccc2c(c1)ccc1cc3c(ccc4ccccc43)cc12 [Dibenz[a,h]anthracene] |  |  |  |  | collision cross section in nitrogen [5]: 160 Å²
CCOC=C(C(=O)OCC)C(=O)OCC [Diethyl ethoxymethylenemalonate] |  |  | 146.8 |  | 
CCCCCCCC[N+](C)(C)Cc1ccccc1 [Benzalkonium chloride C8 (BAC C8)] |  |  |  |  | collision cross section in nitrogen (ion source: APCI, ion mode: Positive, ion type: [M]+ (permanent cation)): 170.1 Å²; collision cross section in nitrogen (ion source: ESI, ion mode: Positive, ion type: [M]+ (permanent cation)): 171.3 Å²
CCNc1nc(NC(C)C(C)C)nc(SC)n1 (configuration not stated) [Dimethametryn] | 165.4 | 165 |  | 166.9 | 
CCOC(=O)c1ccc([C@H]2CC[C@H](NC[C@H](O)COc3ccc(O)c(NS(C)(=O)=O)c3)CC2)cc1 | 212.8 | 231.4 | 230.3 | 225.6 | 
[O-][Cl+3]([O-])([O-])O [Potassium perchlorate] |  |  |  | 105.2 | 
CCCOC(=O)c1ccccc1C(=O)OCCC [Di-n-propylphthalate] |  |  | 171.5 |  | 
CCCCOC(=O)CCCCCCCC(=O)OCCCC [Dibutyl azelate] |  |  | 191.2 | 176 | 
CCCCCCCCCCCCCC(=O)OCC [Ethyl tetradecanoate] |  |  |  | 169.8 | 
COc1cc(-c2ccc(N)c(OC)c2)ccc1N [C.I. Disperse Black 6 dihydrochloride] | 169.7 | 169.9 |  |  | collision cross section in nitrogen [5]: 156.1 Å²
Nc1c(Cl)cc([N+](=O)[O-])cc1Cl [Dichloran] |  |  |  | 131 | 
CNC1(c2ccccc2Cl)CCCCC1=O (configuration not stated) [Ketamine hydrochloride] | 149.7 | 149.4 | 158.8 |  | 

Source: the supplement of paper PMC12317010
